Among the data in patent publication US20230031406A1, “COMPOUNDS AND COMPOSITIONS FOR TREATING CONDITIONS ASSOCIATED WITH NLRP ACTIVITY” (Novartis AG, priority 2018, published 2023) are IC50 values, retold here.

pIC50: −log10 of the molar value. Where two headings read alike, the source gives them in different places.

In general, pIC50 refers to −log10 of the IC50, conventionally taken in molar units.

For the assay, the system named is PMA-differentiated THP-1 cells. Description: IL-1β production in PMA-differentiated THP-1 cells stimulated with gramicidin (hTHP-1 assay containing 2% fetal bovine serum; Procedures 1 and 2). The note with it: 2% fetal bovine serum. The assay is classed as cell-based, human. Summed up: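 THP-1 cells were differentiated with PMA (20 ng/ml, 16-18 h), detached, and plated at 50,000 cells/well in RPMI 1640 with 2% FBS. They were pre-treated with compound (0.0017–100 μM, 0.37% DMSO) for 1 h, then stimulated with gramicidin (5 μM) for 2 h. Supernatant IL-1β was measured by HTRF.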

Setting [1] is: Table B3, hTHP-1 assay, class symbols, read-out: IC50.
[2] abbreviates: Homo sapiens, THP-1, Table B2, class symbols, read-out: hTHP-1 IC50.
[3] abbreviates: Homo sapiens, THP-1, Table B3, hTHP-1 assay, class symbols, read-out: IC50.
The mark [4] stands for this setting: Table B2, class symbols, read-out: hTHP-1 IC50.
Where [5] appears, read: Homo sapiens, THP-1, Table B1, numeric bounds, read-out: Average IC50 of compounds in hTHP-1 assay: hTHP-1 IC50.
The mark [6] stands for this setting: Table B1, class symbols, read-out: Average IC50 of compounds in hTHP-1 assay: hTHP-1 IC50.
The mark [7] stands for this setting: Table B4, class symbols, read-out: hTHP-1 IC50.
Setting [8] is: Homo sapiens, THP-1, Table B1, class symbols, read-out: Average IC50 of compounds in hTHP-1 assay: hTHP-1 IC50.

On to `CCc1c(C(F)(F)F)nc2c(c1NC(=O)N=S(N)(=O)c1nn(C(F)F)cc1F)CCC2` (single isomer, unassigned) [Example 710, (S) or (R)-1-(difluoromethyl)-N′-((3-ethyl-2-(trifluoromethyl)-6,7-dihydro-5H-cyclopenta[b]pyridin-4-yl)carbamoyl)-4-fluoro-1H-pyrazole-3-sulfonimidamide], for which the pIC50 under setting [1] was 4.52 to 5.30.
`C[C@@H]1CCc2c1nc1c(c2NC(=O)N=S(N)(=O)c2ncc(C(C)(C)O)s2)CCC1` (stereo partly drawn) [Compound 140c, 5-(2-Hydroxypropan-2-yl)-N′-(((R)-3-methyl-1,2,3,5,6,7-hexahydrodicyclopenta[b,e]pyridin-8-yl)carbamoyl)thiazole-2-sulfonimidamide]: the negative-log IC50 (pIC50) under setting [2] was 6.00 to 6.70.
As for `CC1(C)CCc2c1nc1c(c2NC(=O)N=S(N)(=O)c2sc(C(C)(O)CO)nc2CO)CCC1` (centres unmarked) [Example 598, 2-(1,2-Dihydroxypropan-2-yl)-N′-((3,3-dimethyl-1,2,3,5,6,7-hexahydrodicyclopenta[b,e]pyridin-8-yl)carbamoyl)-4-(hydroxymethyl)thiazole-5-sulfonimidamide], the pIC50 under setting [3] was 6.00 to 6.70.
As for `CC(C)(O)c1cc(S(N)(=O)=NC(=O)Nc2c3c(nc4c2CCC4(C)C)CCC3)nn1-c1ccc(F)cc1` (single isomer, unassigned) [Compound 705b, (R) or (S)-N′-((3,3-dimethyl-1,2,3,5,6,7-hexahydrodicyclopenta [b,e]pyridin-8-yl)carbamoyl)-1-(4-fluorophenyl)-5-(2-hydroxypropan-2-yl)-1H-pyrazole-3-sulfonimidamide], the negative-log IC50 (pIC50) under setting [4] is 5.30 to 6.00.
For the molecule `CC(C)(O)c1nc(S(N)(=O)=NC(=O)Nc2c3c(nc4c2CCC4)CCC3)cs1` (single isomer, unassigned) [Compound 154b, (S) or (R)-N′-((1,2,3,5,6,7-hexahydrodicyclo-penta[b,e]pyridin-8-yl)carbamoyl)-2-(2-hydroxypropan-2-yl)thiazole-4-sulfonimidamide], under setting [5], the negative logarithm of the IC50 (pIC50) is below 4.55.
As for `CC1CCc2c1nc1c(c2NC(=O)N=S(N)(=O)c2ccn(C(C)C)n2)CCC1` (single isomer, unassigned) [Compound 129bb, (S,R) or (S,S)-1-isopropyl-N′-((3-methyl-1,2,3,5,6,7-hexa-hydrodicyclo-penta[b,e]pyridin-8-yl)carbamoyl)-1H-pyrazole-3-sulfonimidamide], under setting [6], the negative logarithm of the IC50 (pIC50) was 4.52 to 5.30.
With `CC(C)n1cc(F)c(S(N)(=O)=NC(=O)Nc2c3c(nc4c2CC[C@H]4C)CCC3)n1` (single isomer, unassigned) [Example 758, (S) or (R)-4-fluoro-1-isopropyl-N′-(((R)-3-methyl-1,2,3,5,6,7-hexahydrodicyclopenta[b,e]pyridin-8-yl)carbamoyl)-1H-pyrazole-3-sulfonimidamide], the pIC50 under setting [7] is 5.30 to 6.00.
For the molecule `CC(C)(O)c1csc(S(N)(=O)=NC(=O)Nc2c3c(nc(C4CC4)c2C2CC2)CCC3)c1` (single isomer, unassigned) [Compound 670b, (R) or (S)-N′-((2,3-dicyclopropyl-6,7-dihydro-5H-cyclopenta[b]pyridin-4-yl)carbamoyl)-4-(2-hydroxypropan-2-yl)thiophene-2-sulfonimidamide], the pIC50 under setting [4] is 6.70 to 7.40.
Turning to `Cc1c(C2CC2)nc2c(c1NC(=O)N=S(N)(=O)c1sc(C(C)(C)O)cc1F)CCC2` (centres unmarked) [Compound 174, N′-((2-cyclopropyl-3-methyl-6,7-dihydro-5H-cyclopenta[b]pyridin-4-yl)carbamoyl)-3-fluoro-5-(2-hydroxypropan-2-yl)thiophene-2-sulfonimidamide], the negative logarithm of the IC50 (pIC50) under setting [8] is 6.00 to 6.70.
As to `Cc1nc(C)c(C)c(NC(=O)N=S(N)(=O)c2cnc(C(C)(C)O)s2)c1C` (single isomer, unassigned) [Compound 133a, (R) or (S)-2-(2-hydroxypropan-2-yl)-N′-((2,3,5,6-tetramethylpyridin-4-yl)carbamoyl)thiazole-5-sulfonimidamide], the pIC50 under setting [5] was below 4.52.
As for `Cc1c(C(C)C)nc2c(c1NC(=O)N=S(N)(=O)c1sc(C(C)(C)O)cc1F)CCC2` (single isomer, unassigned) [Compound 645a, (R) or (S)-3-Fluoro-5-(2-hydroxypropan-2-yl)-N′-((2-isopropyl-3-methyl-6,7-dihydro-5H-cyclopenta[b]pyridin-4-yl)carbamoyl) thiophene-2-sulfonimidamide], the negative-log IC50 (pIC50) under setting [4] is 6.70 to 7.40.
`CC1CCc2c1nc1c(c2NC(=O)N=S(N)(=O)c2cn(C(C)C)cn2)CCC1` (single isomer, unassigned) [Compound 660b, (S, S) or (R, S) or (S, R) or (R, R)-1-Isopropyl-N′-((3-methyl-1,2,3,5,6,7-hexahydrodicyclopenta [b,e]pyridin-8-yl)carbamoyl)-1H-imidazole-4-sulfonimidamide]: the negative logarithm of the IC50 (pIC50) (Table B2, numeric bounds, read-out: hTHP-1 IC50) is below 4.52.
Regarding `CC1CCc2c1nc1c(c2NC(=O)N=S(N)(=O)c2sc(C(C)(C)O)nc2CO)CCC1` (centres unmarked) [Compound 168, 4-(hydroxymethyl)-2-(2-hydroxypropan-2-yl)-N′-((3-methyl-1,2,3,5,6,7-hexahydrodicyclopenta[b,e]pyridin-8-yl)carbamoyl)thiazole-5-sulfonimidamide], the pIC50 under setting [6] was 6.00 to 6.70.
`CCn1ccc([S@@](N)(=O)=NC(=O)Nc2c3c(nc4c2CCC42CC2)CCC3)n1` [Compound 604a]: the negative-log IC50 (pIC50) under setting [2] is 4.52 to 5.30.
With `CC(C)(O)c1ncc(S(N)(=O)=NC(=O)Nc2c3c(nc4c2CCC4)CCC3)s1` (single isomer, unassigned) [Compound 128b, (S) or (R)-N′-((1,2,3,5,6,7-hexahydrodicyclo-penta[b,e]pyridin-8-yl)carbamoyl)-2-(2-hydroxypropan-2-yl)thiazole-5-sulfonimidamide], under setting [6], the negative logarithm of the IC50 (pIC50) is 4.52 to 5.30.
Consider `CC(C)(O)c1sc(S(N)(=O)=NC(=O)Nc2c3c(nc4c2CCC4(C)C)CCC3)nc1CO` (single isomer, unassigned) [Compound 642a, (S) or (R)-N′-((3,3-dimethyl-1,2,3,5,6,7-hexahydrodicyclopenta [b,e]pyridin-8-yl)carbamoyl)-4-(hydroxymethyl)-5-(2-hydroxypropan-2-yl)thiazole-2-sulfonimidamide], for which the pIC50 under setting [4] is 4.52 to 5.30.
As to `CC(C)(O)c1cccc(S(N)(=O)=NC(=O)Nc2c3c(nc4c2CCC4)CCC3)c1` (centres unmarked) [Compound 625, N′-((1,2,3,5,6,7-hexahydrodicyclopenta[b,e]pyridin-8-yl)carbamoyl)-3-(2-hydroxypropan-2-yl)benzenesulfonimidamide], under setting [2], the pIC50 was 4.52 to 5.30.
Consider `CC(C)n1cc(F)c(S(N)(=O)=NC(=O)Nc2c3c(nc4c2CC[C@H]4C)CCC3)n1` (single isomer, unassigned) [Example 757, (R) or (S)-4-fluoro-1-isopropyl-N′-(((R)-3-methyl-1,2,3,5,6,7-hexahydrodicyclopenta[b,e]pyridin-8-yl)carbamoyl)-1H-pyrazole-3-sulfonimidamide], for which the pIC50 under setting [7] was 7.40 to 8.10.
Turning to `CCn1ccc(S(N)(=O)=NC(=O)Nc2c(C)c(C(F)(F)F)nc3c2CCC3)n1` (single isomer, unassigned) [Example 691, (R) or (S)-1-Ethyl-N′-((3-methyl-2-(trifluoromethyl)-6,7-dihydro-5H-cyclopenta[b]pyridin-4-yl)carbamoyl)-1H-pyrazole-3-sulfonimidamide], the pIC50 under setting [1] is 6.00 to 6.70.
As for `C[C@](O)(CO)c1cc(F)c(S(N)(=O)=NC(=O)Nc2c3c(nc4c2CCC42CC2)CCC3)s1` (some centres unmarked) [Compound 716a], under setting [2], the pIC50 is 6.70 to 7.40.
Consider `CN(C)Cc1ccc(S(N)(=O)=NC(=O)Nc2c3c(nc4c2CCC4)CCC3)cc1` (centres unmarked) [Compound 130, 4-((dimethylamino)methyl)-N′-((1,2,3,5,6,7-hexahydrodicyclopenta[b,e]pyridin-8-yl)carbamoyl)benzenesulfonimidamide], for which the pIC50 under setting [8] was 4.52 to 5.30.
With `CC(C)(O)c1cc(F)c(S(N)(=O)=NC(=O)Nc2c3c(nc(C(F)(F)F)c2C2CC2)CCC3)s1` (centres unmarked) [Example 610], the pIC50 under setting [3] is 6.00 to 6.70.
In the case of `CC1CCc2c1nc1c(c2NC(=O)N=S(N)(=O)c2cc(C(C)(C)O)cs2)CCC1` (single isomer, unassigned) [Compound 141ab, (R,S) or (R,R)-4-(2-hydroxypropan-2-yl)-N′-((3-methyl-1,2,3,5,6,7-hexahydro-dicyclopenta[b,e]pyridin-8-yl)carbamoyl)thiophene-2-sulfonimidamide], under setting [8], the pIC50 was 6.00 to 6.70.
As for `CC(C)c1ncc(F)c(C(C)C)c1NC(=O)N=S(N)(=O)c1cc(C(C)(C)O)cs1` (single isomer, unassigned) [Compound 148b, (S) or (R)-N′-((5-fluoro-2,4-diisopropylpyridin-3-yl)carbamoyl)-4-(2-hydroxypropan-2-yl)thiophene-2-sulfonimidamide], under setting [6], the pIC50 is 5.30 to 6.00.
For the molecule `CC(C)n1nc(S(N)(=O)=NC(=O)Nc2c3c(nc4c2CC[C@H]4C)CCC3)cc1CO` (stereo partly drawn) [Example 596, 5-(Hydroxymethyl)-1-isopropyl-N-(((R)-3-methyl-1,2,3,5,6,7-hexahydrodicyclopenta[b,e]pyridin-8-yl)carbamoyl)-1H-pyrazole-3-sulfonimidamide], under setting [3], the negative-log IC50 (pIC50) was 5.30 to 6.00.
Turning to `CC(C)c1ncc(F)c(C(C)C)c1NC(=O)N=S(N)(=O)c1nc(C(C)(C)O)cs1` (single isomer, unassigned) [Compound 163b, (S) or (R)-N′-((5-fluoro-2,4-diisopropylpyridin-3-yl)carbamoyl)-4-(2-hydroxypropan-2-yl)thiazole-2-sulfonimidamide], the pIC50 under setting [6] was 4.52 to 5.30.
